This experiment deals with Metabotropic glutamate receptor 3 (Rattus norvegicus) (UniProt P31422). The experiment in a line: glutamate response shift at mGlu3 – cell-based, rat, GIRK thallium flux, selectivity assay for mGlu4 PAM optimization project, SAR follow-up (AID 623879). To be noted: rat mGlu3 cells, glutamate CRC shift, at 10 µM.

SMILES strings stand for the structures. Active and inactive are the calls of the source.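 Rule for the calls: active = fold shift at least 2 as potentiator or at most 0.5 as antagonist, actives on both sides; inactive = fold shift between 0.5 and 2.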

Chain of Metabotropic glutamate receptor 3 (Rattus norvegicus) (P31422 whole entry, looked up): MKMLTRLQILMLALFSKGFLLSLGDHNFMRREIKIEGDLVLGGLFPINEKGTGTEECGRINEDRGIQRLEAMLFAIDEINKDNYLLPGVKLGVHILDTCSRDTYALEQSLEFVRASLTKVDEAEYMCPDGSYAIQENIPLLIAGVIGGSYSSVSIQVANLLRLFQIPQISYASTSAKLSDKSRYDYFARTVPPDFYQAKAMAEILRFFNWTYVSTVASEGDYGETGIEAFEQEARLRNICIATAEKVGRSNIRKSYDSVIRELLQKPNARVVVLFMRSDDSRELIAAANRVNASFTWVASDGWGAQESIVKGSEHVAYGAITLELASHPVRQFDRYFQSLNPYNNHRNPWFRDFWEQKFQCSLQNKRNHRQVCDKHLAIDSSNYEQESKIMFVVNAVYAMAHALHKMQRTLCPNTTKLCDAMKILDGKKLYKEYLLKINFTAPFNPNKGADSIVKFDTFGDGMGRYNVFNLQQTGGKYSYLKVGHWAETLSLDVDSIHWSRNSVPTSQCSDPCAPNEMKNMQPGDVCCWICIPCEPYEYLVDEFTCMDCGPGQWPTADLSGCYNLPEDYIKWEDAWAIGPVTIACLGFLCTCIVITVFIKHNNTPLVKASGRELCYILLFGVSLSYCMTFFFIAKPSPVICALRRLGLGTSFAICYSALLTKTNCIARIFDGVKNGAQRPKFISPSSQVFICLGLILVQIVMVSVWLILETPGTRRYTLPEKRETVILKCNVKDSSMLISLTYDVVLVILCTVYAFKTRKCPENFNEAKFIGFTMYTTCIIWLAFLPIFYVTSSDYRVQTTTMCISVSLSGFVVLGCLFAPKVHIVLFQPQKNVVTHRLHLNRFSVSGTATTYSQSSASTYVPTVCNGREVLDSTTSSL

For `O=C(Nc1cccc(Cl)c1)c1ccccn1`, the fold shift was 0.897 (inactive). For the setting “measured here: glutamate max response with compound, stronger effect = higher value”, the max response came out at 98.7%.

Values taken from PubChem BioAssay AID623879 (Vanderbilt Specialized Chemistry Center, 2012).
